Results: US10391070B2, “Compositions and methods for treating neurological diseases or injury” (MUSC FOUNDATION FOR RESEARCH DEVELOPMENT, priority 2012, dated 2019)

How the values were obtained:
[1] = system: maximal electroshock-induced seizures; assay: Maximal electroshock test; assay type: in vivo, mouse; conditions: mice; for animals protected/animals tested, 0.25 hr / animals protected/animals tested, 0.5 hr / animals protected/animals tested, 1.0 hr / animals protected/animals tested, 2.0 hr / animals protected/animals tested, 4.0 hr: 100 mg/kg i.p., maximal electroshock
Procedure: Mouse studies were performed by NIH Anticonvulsant Screening Program at the National Institute of Neurological Disorders and Stroke (Stables and Kupferberg, 1997) according to the established NIH experimental procedures outlined below. Compounds were delivered into mice by i.p. injection at a dose of 100 mg/kg in sterile 5% DMSO, 95% Neobee (Josey et al., 2013). One of four methods for seizure induction was subsequently administered to mice at 0.25, 0.5, 1, 2 and 4 h after treatment with compound. (1) Subcutaneous PTZ seizure threshold test. PTZ was administered at a concentration of 85 mg/kg, into the loose fold of skin in the midline of the neck. […] (2) Maximal electroshock test. 60 Hz of 50 mA alternating current was delivered for 0.2 s by corneal electrodes. Mice were considered protected from seizures when the hindlimb tonic extensor was absent (White et al., 1995). (3) Minimal clonic seizure (6 Hz) test. 6 Hz of 32 mA or 44 mA alternating current was delivered for 3 s by corneal electrodes to elicit a psychomotor seizure. Mice were considered protected from seizures when the automatistic behaviors were absent (Barton et al., 2001). (4) Corneal kindled mouse model. Mice were kindled electrically with a 3 s stimulation, 8 mA, 60 Hz, and corneal electrodes to a criterion of 10 consecutive Stage 5 seizures (facial clonus and head nodding progressing to forelimb clonus, and finally rearing and falling accompanied by a generalized clonic seizure as described by Racine, 1972). Animals generally reach Stage 5 after twice daily stimulation for 8 days. With continued stimulation once a day, animals usually progressed to a reproducible Stage 5 after 10-14 additional days. At least 72 hours after the mice were kindled, the test substance was administered i.p. and each animal was given the electrical stimulus indicated above. […] Treated animals not displaying a Stage 4 or 5 seizure were considered protected.
The data for each treatment is represented as the number of animals protected/number of animals tested.
The maximal electroshock-induced seizures (MES) test is a model for generalized tonic-clonic seizures and provides an indication of a compound's ability to prevent seizure spread when all neuronal circuits in the brain are maximally active. These seizures are highly reproducible and are electrophysiologically consistent with human seizures. An animal is considered “protected” from MES-induced seizures based on abolition of the hindlimb tonic extensor component of the seizure.

c-fos = c-fos gene expression in PTZ-treated zebrafish larvae; assay type: in vivo, zebrafish (Danio rerio); conditions: 7 dpf zebrafish; for reduction of c-fos gene expression compared to PTZ alone: concentrations of Table 9
Procedure: Ten 7 dpf larvae were placed in 500 μL tank water in wells of a 48-well cell-culture plate and appropriate concentrations of drugs were added as in the behavior study (Table 9). After a 1 h pre-incubation period, PTZ was added to a final concentration of 15 mM in appropriate wells and larvae were incubated for a further 45 min. Fish were quickly euthanized by incubating the plate in an ice-water bath for 15 min. Fish were removed from each well and all liquid removed before freezing at −80° C. RNA was extracted using Trizol (Invitrogen) followed by the RNeasy Mini kit (Qiagen). Frozen embryos were homogenized in 800 μL Trizol using in-tube pestles and a motorized homogenizer. Following a 5-min incubation at room temperature, 200 μL chloroform was added and the samples were centrifuged at 12,000 g for 10 min. The aqueous phase was transferred to a new tube and 250 μL 100% ethanol was added and the samples mixed. This mixture was then transferred to the Qiagen minicolumn assembly and the protocol followed as described with the kit. Samples were eluted in 30 μL RNase free water and concentration was determined using the Nanodrop instrument (Thermo Fisher). cDNA was prepared using the RETROscript kit (Ambion) with 500 ng total RNA. cDNA was then diluted 1:1 with sterile dH2O and 2.5 μL of this cDNA was used in the QPCR reaction with SsoAdvanced SYBR Green Supermix (BioRad) and c-fos primers designed to span an intron-exon junction (c-fos F: […], SEQ ID NO:9; c-fos R: […], SEQ ID NO:10) ([…] each) in the BioRad CFX96 RealTime instrument. L13a and EF1a gene expression were used for normalization (Rahn et al., 2013). The following cycle conditions were used: 95° C./3 min, 40 cycles of 95° C./15 s, 62° C./30 s, followed by 95° C. 30 s and a dissociation curve. Samples were run in duplicate. The 2^−ΔΔCt method was used to quantify gene expression, whereby all gene Ct values were first normalized to Ct values of the geometric mean of the Ct of L13a and EF1a (Livak and Schmittgen, 2001). Treated samples were then normalized to the tank water control and converted to fold change.

[2] = Antioxidant activity assay (DPPH free radical scavenging); conditions: 20 μM, 100 μM DPPH in methanol
Procedure: Antioxidant activity of various reagents was assayed as previously described by monitoring the disappearance of the optical absorbance of the stable-free radical DPPH on reaction with test compounds (Blois, 1958). The rate of the reaction represents the antioxidant potency of test agents. The known free radical scavenger Trolox and ascorbic acid were used as positive controls. Briefly, 10 μL of test reagents at final concentrations of 20 μM were added to 200 μL of 100 μM DPPH in methanol. Optical absorbance of DPPH at 517 nm was immediately monitored for 10 min.

Molecule | anticonvulsant activity in maximal electroshock test [1] | animals protected/animals tested, 0.25 hr [1] | animals protected/animals tested, 0.5 hr [1] | animals protected/animals tested, 1.0 hr [1] | animals protected/animals tested, 2.0 hr [1] | animals protected/animals tested, 4.0 hr [1] | reduction of c-fos gene expression compared to PTZ alone (c-fos) | free radical scavenging capacity (DPPH absorbance) [2] | fold reduction of c-fos gene expression compared to PTZ alone (c-fos; 6 μM pre-treatment)
C#CCNC1=CC(=O)c2ccccc2C1=O [Compound 2h, 2-(prop-2-yn-1-ylamino)naphthalene-1,4-dione] | limited anticonvulsant activity | 0/4 | 0/4 | 0/4 | 1/4 | 1/4 | about half | – | –
O=C1C=C(NCc2ccccc2)C(=O)c2ccccc21 [Compound 2j, 2-(benzylamino)naphthalene-1,4-dione] | limited anticonvulsant activity | 0/4 | 0/4 | 0/4 | 2/4 | 0/4 | about half | did not show direct antioxidant capacity | –
O=C1C=C(NCc2cccc(Cl)c2)C(=O)c2ccccc21 [Compound 2q, 2-((3-chlorobenzyl)amino)naphthalene-1,4-dione] | – | 0/4 | 0/4 | 0/4 | 0/4 | 0/4 | about half | did not show direct antioxidant capacity | –
CC1=CC(=O)c2ccccc2C1=O [VK3, menadione, reference compound] | – | – | – | – | – | – | – | – | approximately 10 fold
menaquinones [VK2, reference compound] | – | – | – | – | – | – | – | did not show direct antioxidant capacity | –
